Measured values published in patent US8440710B2, “HSL inhibitors useful in the treatment of diabetes” (Hoffmann-La Roche Inc., priority 2009, dated 2013).

Biological target: T1, human HSL (Homo sapiens, UniProt Q05469)
T1 construct: generate a full length human HSL ORF with a 3′-His6 tag; made in house; host or cells: High 5 insect cells (baculovirus, pFast-BAC)
T1 sequence (Q05469 1-1076): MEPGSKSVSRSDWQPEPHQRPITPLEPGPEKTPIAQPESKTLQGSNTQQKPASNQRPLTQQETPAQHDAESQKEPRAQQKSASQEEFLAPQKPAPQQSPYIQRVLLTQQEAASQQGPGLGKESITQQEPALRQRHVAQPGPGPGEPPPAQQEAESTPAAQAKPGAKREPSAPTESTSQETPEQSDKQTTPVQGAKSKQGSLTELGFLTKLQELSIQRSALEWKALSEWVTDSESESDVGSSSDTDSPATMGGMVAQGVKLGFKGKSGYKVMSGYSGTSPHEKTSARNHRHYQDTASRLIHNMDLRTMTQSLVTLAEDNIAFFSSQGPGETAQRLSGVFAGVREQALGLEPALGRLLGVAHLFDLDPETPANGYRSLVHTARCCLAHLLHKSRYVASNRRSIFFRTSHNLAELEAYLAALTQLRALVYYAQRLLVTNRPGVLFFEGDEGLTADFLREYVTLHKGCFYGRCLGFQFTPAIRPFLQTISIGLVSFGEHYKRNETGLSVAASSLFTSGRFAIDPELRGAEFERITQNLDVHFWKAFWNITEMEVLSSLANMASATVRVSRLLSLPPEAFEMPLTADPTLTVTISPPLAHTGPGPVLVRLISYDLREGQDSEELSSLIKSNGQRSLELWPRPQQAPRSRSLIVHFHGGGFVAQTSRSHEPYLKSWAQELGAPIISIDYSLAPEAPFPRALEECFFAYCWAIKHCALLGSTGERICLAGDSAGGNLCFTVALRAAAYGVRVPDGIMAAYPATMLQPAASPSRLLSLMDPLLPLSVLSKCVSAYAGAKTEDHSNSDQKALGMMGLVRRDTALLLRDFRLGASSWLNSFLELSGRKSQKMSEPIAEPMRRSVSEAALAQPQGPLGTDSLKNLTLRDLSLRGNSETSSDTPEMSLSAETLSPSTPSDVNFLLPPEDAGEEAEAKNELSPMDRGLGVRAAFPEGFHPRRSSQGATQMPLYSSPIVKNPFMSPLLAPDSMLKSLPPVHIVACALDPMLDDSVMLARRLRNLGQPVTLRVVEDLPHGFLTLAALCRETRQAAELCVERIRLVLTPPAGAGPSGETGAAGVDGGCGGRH
Assay: Human Hormone-Sensitive Lipase (HSL) enzyme inhibition assay (colorimetric, DMPT substrate)
Format: biochemical
Settings: human full length HSL-His6, 2,3-dimercapto-1-propanol tributyrate substrate, 37° C. 20 minutes, absorbance at 405 nm; read-out: HSL hum IC50
Procedure, shortened: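 Full-length human HSL with C-terminal His6, expressed in baculovirus-infected High 5 cells and Ni-NTA purified, was added (15 ug/ml stock) to 1.5 mM DMPT in 100 mM MOPS pH 7.2, 0.2 mg/ml fatty acid-free BSA containing compound. After 20 min at 37 °C, DTNB with SDS/Triton X-100 was added; A405 read after 15 min at RT.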

Structure (SMILES)	IC50 [nM]
CC(C)S(=O)(=O)C[C@]1(O)CC[C@]2(CCN(c3ccc(OCC(F)(F)F)cc3)C2=O)CC1 [Example 318, (5α,8α)-8-Hydroxy-8-(propane-2-sulfonylmethyl)-2-[4-(2,2,2-trifluoro-ethoxy)-phenyl]-2-aza-spiro[4.5]decan-1-one]	30
CC(C)(C)S(=O)(=O)C[C@]1(O)CC[C@]2(CCN(c3ccc(OCC(F)(F)F)cc3)C2=O)CC1 [Example 322, (5α,8α)-8-Hydroxy-8-(2-methyl-propane-2-sulfonylmethyl)-2-[4-(2,2,2-trifluoro-ethoxy)-phenyl]-2-aza-spiro[4.5]decan-1-one]	20
CC(C)S(=O)(=O)C[C@]1(O)CC[C@]2(CCN(c3ccc(O[C@H](C)C(F)(F)F)nc3)C2=O)CC1 [Example 324, (5α,8α)-8-Hydroxy-8-(propane-2-sulfonylmethyl)-2-[6-((R)-2,2,2-trifluoro-1-methyl-ethoxy)-pyridin-3-yl]-2-aza-spiro[4.5]decan-1-one]	20
CCOC[C@]1(O)CC[C@]2(CCN(c3ccc(OC(C)C)nc3)C2=O)CC1 [Example 330, (5α,8α)-8-Ethoxymethyl-8-hydroxy-2-(6-isopropoxy-pyridin-3-yl)-2-aza-spiro[4.5]decan-1-one]	40
CC(C)S(=O)(=O)C[C@]1(O)CC[C@]2(CCN(c3ccc(C(C)(C)C)cc3)C2=O)CC1 [Example 333, (5α,8α)-2-(4-tert-Butyl-phenyl)-8-hydroxy-8-(propane-2-sulfonylmethyl)-2-aza-spiro[4.5]decan-1-one]	8
CCCS(=O)(=O)C[C@]1(O)CC[C@]2(CCN(c3ccc(OC(C)C)nc3)C2=O)CC1 [Example 335, (5α,8α)-8-Hydroxy-2-(6-isopropoxy-pyridin-3-yl)-8-(propane-1-sulfonylmethyl)-2-aza-spiro[4.5]decan-1-one]	50
O=C1N(c2ccc3c(c2)OC(F)(F)O3)CC[C@]12CC[C@@](O)(C(F)(F)F)CC2 [Example 336, (5α,8α)-2-(2,2-Difluoro-benzo[1,3]dioxol-5-yl)-8-hydroxy-8-trifluoromethyl-2-aza-spiro[4.5]decan-1-one]	210
CC(C)(O)[C@]1(O)CC[C@]2(CCN(c3ccc(OCC(F)(F)F)cc3)C2=O)CC1 [Example 339, (5α,8α)-8-Hydroxy-8-(1-hydroxy-1-methyl-ethyl)-2-[4-(2,2,2-trifluoro-ethoxy)-phenyl]-2-aza-spiro[4.5]decan-1-one]	120
O=C1N(c2ccc(C3CC(F)(F)C3)cc2)CC[C@]12CC[C@@](O)(C(F)(F)F)CC2 [Example 340, (5α,8α)-2-[4-(3,3-Difluoro-cyclobutyl)-phenyl]-8-hydroxy-8-trifluoromethyl-2-aza-spiro[4.5]decan-1-one]	40

The remaining molecules from weak to strong by IC50, led by results:

IC50 [nM]	Structure (SMILES)
250	CC(=O)[C@]1(O)CC[C@]2(CCN(c3ccc(OCC(F)(F)F)cc3)C2=O)CC1 [Example 338, (5α,8α)-8-Acetyl-8-hydroxy-2-[4-(2,2,2-trifluoro-ethoxy)-phenyl]-2-aza-spiro[4.5]decan-1-one]
170	COC[C@]1(O)CC[C@]2(CCN(c3ccc(OC(C)C)nc3)C2=O)CC1 [Example 329, (5α,8α)-8-Hydroxy-2-(6-isopropoxy-pyridin-3-yl)-8-methoxymethyl-2-aza-spiro[4.5]decan-1-one]
80	CC[C@]1(O)CC[C@]2(CCN(c3ccc4c(c3)OC(F)(F)O4)C2=O)CC1 [Example 337, (5α,8α)-2-(2,2-Difluoro-benzo[1,3]dioxol-5-yl)-8-ethyl-8-hydroxy-2-aza-spiro[4.5]decan-1-one]
30	C[C@@H](Oc1ccc(N2CC[C@]3(CC[C@@](O)(COCC(F)(F)F)CC3)C2=O)cn1)C(F)(F)F [Example 327, (5α,8α)-8-Hydroxy-8-(2,2,2-trifluoro-ethoxymethyl)-2-[6-((R)-2,2,2-trifluoro-1-methyl-ethoxy)-pyridin-3-yl]-2-aza-spiro[4.5]decan-1-one]
12	CCCS(=O)(=O)C[C@]1(O)CC[C@]2(CCN(c3ccc(C(C)(C)C)cc3)C2=O)CC1 [Example 331, (5α,8α)-2-(4-tert-Butyl-phenyl)-8-hydroxy-8-(propane-1-sulfonylmethyl)-2-aza-spiro[4.5]decan-1-one]
10	CC(C)(C)SC[C@]1(O)CC[C@]2(CCN(c3ccc(OCC(F)(F)F)cc3)C2=O)CC1 [Example 319, (5α,8α)-8-tert-Butylsulfanylmethyl-8-hydroxy-2-[4-(2,2,2-trifluoro-ethoxy)-phenyl]-2-aza-spiro[4.5]decan-1-one]
10	CC(C)SC[C@]1(O)CC[C@]2(CCN(c3ccc(O[C@@H](C)C(F)(F)F)nc3)C2=O)CC1 [Example 320, (5α,8α)-8-Hydroxy-8-isopropylsulfanylmethyl-2-[6-((S)-2,2,2-trifluoro-1-methyl-ethoxy)-pyridin-3-yl]-2-aza-spiro[4.5]decan-1-one]
10	CC(C)SC[C@]1(O)CC[C@]2(CCN(c3ccc(O[C@H](C)C(F)(F)F)nc3)C2=O)CC1 [Example 321, (5α,8α)-8-Hydroxy-8-isopropylsulfanylmethyl-2-[6-((R)-2,2,2-trifluoro-1-methyl-ethoxy)-pyridin-3-yl]-2-aza-spiro[4.5]decan-1-one]
10	CC(C)S(=O)(=O)C[C@]1(O)CC[C@]2(CCN(c3ccc(O[C@@H](C)C(F)(F)F)nc3)C2=O)CC1 [Example 323, (5α,8α)-8-Hydroxy-8-(propane-2-sulfonylmethyl)-2-[6-((S)-2,2,2-trifluoro-1-methyl-ethoxy)-pyridin-3-yl]-2-aza-spiro[4.5]decan-1-one]
10	C[C@H](Oc1ccc(N2CC[C@]3(CC[C@@](O)(CS(=O)(=O)C(C)(C)C)CC3)C2=O)cn1)C(F)(F)F [Example 325, (5α,8α)-8-Hydroxy-8-(2-methyl-propane-2-sulfonylmethyl)-2-[6-((S)-2,2,2-trifluoro-1-methyl-ethoxy)pyridin-3-yl]-2-aza-spiro[4.5]decan-1-one]
10	C[C@@H](Oc1ccc(N2CC[C@]3(CC[C@@](O)(CS(=O)(=O)C(C)(C)C)CC3)C2=O)cn1)C(F)(F)F [Example 326, (5α,8α)-8-Hydroxy-8-(2-methyl-propane-2-sulfonylmethyl)-2-[6-((R)-2,2,2-trifluoro-1-methyl-ethoxy)-pyridin-3-yl]-2-aza-spiro[4.5]decan-1-one]
10	CCC(CC)OC[C@]1(O)CC[C@]2(CCN(c3ccc(O[C@@H](C)C(F)(F)F)nc3)C2=O)CC1 [Example 328, (5α,8α)-8-(1-Ethyl-propoxymethyl)-8-hydroxy-2-[6-((S)-2,2,2-trifluoro-1-methyl-ethoxy)-pyridin-3-yl]-2-aza-spiro[4.5]decan-1-one]
8	CC(C)(C)c1ccc(N2CC[C@]3(CC[C@@](O)(CS(=O)(=O)C(C)(C)C)CC3)C2=O)cc1 [Example 334, (5α,8α)-2-(4-tert-Butyl-phenyl)-8-hydroxy-8-(2-methyl-propane-2-sulfonylmethyl)-2-aza-spiro[4.5]decan-1-one]
7	CC(C)CS(=O)(=O)C[C@]1(O)CC[C@]2(CCN(c3ccc(C(C)(C)C)cc3)C2=O)CC1 [Example 332, (5α,8α)-2-(4-tert-Butyl-phenyl)-8-hydroxy-8-(2-methyl-propane-1-sulfonylmethyl)-2-aza-spiro[4.5]decan-1-one]
